Laboratory results taken from PMC12731536, “Sc(III) Complexes of Pyclen Derivative Ligands as Probes for Hypoxia: Synthesis, Chemical Characterization, ^44Sc‐Radiolabeling, and Preclinical Assessment” (Chemistry (Weinheim an Der Bergstrasse, Germany), 2025).
Read-outs that look alike come from different tables or passages of the source. Values belong to the compound of their own block, whether it stands above or below them.

Legend:
[1] = cited from earlier work
[2] = Time course of Sc(III) complex formation, 45Sc NMR; assay type: physicochemical
Description: The time course of complex formation of PC2AM^nBu and PCTA ligands with Sc(III) ion was investigated by ^45Sc‐NMR under acidic conditions (cSc = cligand = 10 mM and 9.5 mM, respectively, ‐log[H^+] = 1.28). The decrease of the narrow signal of the free Sc(III) ion was monitored as a function of time. […] The kinetic measurements of formation could be seen in Figures S18 and S19. The complexation for the [Sc(PCTA)] chelate at pH = 1.28 and 25 °C took about 300 minutes to reach the equilibrium, whereas for the [Sc(PC2AM^nBu)]^+ complex it took a bit longer time under these conditions. (In order to confirm that the samples reached the equilibrium, we have repeated the ^45Sc NMR study for both samples after a few days when the signal of the free Sc(III) was absent, and only the signals of the complexes were detected.) The detailed study of formation kinetics was not our aim in this project. One can expect that the reaction follows the well‐known mechanisms of M(III) ‐ macrocyclic APC systems ^[ [54] ^]: formation of a protonated intermediate in fast pre‐equilibrium followed by a slow, base‐catalyzed deprotonation/structural rearrangement as a rate‐determining step. The intermediate is named also as “out‐of‐cage complex.”^[ [55] ^] Our experimental curves are likely in accordance with this mechanism. Fitting the measured data for the free Sc(III) signals by a monoexponential function gives the rate constant k obs = (1.04 ± 0 .05) x 10^−4 s^−1 for the [Sc(PC2AM^nBu)]^+ and k obs = (2.51 ± 0.12) x 10^−4 s^−1 for the [Sc(PCTA)] complex. […] The relatively fast complex formation at the given acidic condition is very encouraging for the Sc(III) labeling experiments.
^45Sc NMR measurements (97 MHz) were performed on a Bruker DRX 400 (9.4 T) spectrometer equipped with a Bruker VT‐1000 thermocontroller and a BB inverse z‐gradient probe (5 mm). The kinetic experiments were performed at 25 °C in aqueous solution, using D2O (10% v/v) as a lock solvent. Typical parameters for 45Sc NMR measurements were used: TD = 32k, p1 = 15.6 µs (90°), d 1 = 0.1 s. The formation reactions of the [Sc(PC2AM^nBu)]^+ and [Sc(PCTA)] complexes were monitored by ^45Sc NMR spectroscopy in two sample types: one containing 10.0 mM PC2AM^nBu and ScCl3 / 9.5 mM […] and ScCl3. In both cases, the total acid concentration corresponded to a pH of 1.28. Obtained monoexponential curves (signal area of free Sc(III) vs. time) were fitted using Scientist software ^[ [62] ^] to determine the formation rate.

[3] = I = 0.15 M NaCl, T = 25 °C; cited from earlier work
[4] = Stability constants of Sc(III) complexes, out‐of‐cell (batch) samples, 45Sc NMR; assay type: physicochemical; details: for AL/M (relative affinity): [Sc(III)]total = 10 nM, [L]tot = 100 nM
Description: The stability constant of the complex of PC2AM^nBu ligand formed with Sc(III) ion was studied using “out‐of‐cell” (batch) samples using ^45Sc NMR spectroscopy in strongly acidic media. Typical ^45Sc NMR spectra are shown in Figure 5 along with the corresponding ^1H NMR spectra of the aromatic region of the ligand.
Using the ^45Sc NMR signal intensities of free Sc^3+ measured in the equilibrated samples, the stability constant, K ScL, was calculated by fitting the areas with the PSEQUAD program ^[ [47] ^] (Figure 6). The best fitting was observed by considering the simplest model including only [Sc(PC2AM^nBu)]^+ species; that is, the formation of protonated [Sc(HPC2AM^nBu)]^2+ cannot be confirmed.
The stability constant of the [Sc(PCTA)] complex was determined in a similar way (Figure S13). The results were summarized in Table 2, including the data of [Sc(DO3AM‐NI)], determined in our previous study.^[ [33] ^]
Among the complexes shown in Table 2, the [Sc(DO3AM‐NI)] complex has the highest stability, but its stability constant is lower than the corresponding values of [Sc(DOTA)]^− (log K ScL = 30.79) and [Sc(DTPA)]^2− (log K ScL = 27.43). ^[ [49] ^] As evidenced for DO3AM‐mono(amide) the replacement of acetate side chains with amide groups results in a decrease in stability constant (and conditional stability); therefore, we can see an order of magnitude difference between the stabilities of [Sc(PCTA)] and [Sc(PC2AM^nBu)]^+. Although these K ScL constants and pSc values are somewhat lower than those of the complexes formed with traditional DOTA and DTPA ligands, these chelators remain remarkably good Sc(III)‐binding chelators. […] Therefore, following the proposal of M. Meyer and colleagues,^[ [48] ^] […] For the AL/M values, 1 corresponds to 90%, 2 corresponds to 99%, 3 corresponds to 99.9% etc. for complex formation. […] The AL/M data of the [Sc(PC2AM^nBu)]^+ complex only exceeds that of the [Sc(DO3AM‐NI)] complex in the pH < 3.0 range, which can be advantageous for labeling at low pH. Furthermore, based on the data in Table 2, it can be concluded that for these systems there is no discrepancy between the trends observed in the pSc and AL/M values.
The stability constant of [Sc(PC2AM^nBu)]^+ and [Sc(PCTA)] complexes was studied using “out‐of‐cell” (batch) samples using ^45Sc and ^1H NMR spectroscopy. The NMR spectra were obtained using a Bruker Avance II DRX spectrometer (9.4 T), equipped with Bruker Variable Temperature Unit, Bruker Cooling Unit, and a 5 mm BB inverse z gradient probe. For the investigation of [Sc(PC2AMnBu)]⁺, twelve samples (cSc(III) = 3.00 mM, cligand = 3.06 mM, in the pH range of –log[H^+] = 0.1–1.3; I = 1.0 M NaCl/HCl) were prepared in NMR tubes and kept at 25 °C for one week to reach equilibrium. During this period, ^1H and ^45Sc NMR measurements were performed daily to monitor changes in signal intensities. No significant changes were detected after one week, even in the most acidic sample. The intensities of the free Sc(III) signals were normalized using a standard 50 mM ScCl3 solution containing 1 M HCl (20% D2O). For the determination of the stability of the [Sc(PCTA)] complex, eleven “batch” samples (cSc(III) = 4.00 mM, cligand = 4.08 mM), in the pH range of –log[H^+] = 0.1–1.25, were prepared. The evaluation of the measured data was performed using the PSEQUAD program.^[ [47] ^] Samples were prepared in H2O, with 10% D2O added for deuterium lock. The actual resonance frequencies for ^1H, ^13C, ^19F, and ^45Sc are indicated in the text and figure captions. The chemical shifts of ^1H and ^13C were calibrated using an external TMS standard, while ^19F was referenced to CCl3F. The ^45Sc NMR shift was calibrated to 0 ppm using a 5 mM solution of ScCl3 in 0.1 M HCl.

[5] = pH‐potentiometric determination of ligand protonation constants; assay type: physicochemical; details: T = 25 °C
Description: The equilibrium study of the PC2AM^nBu ligand has been started by determining the protonation constants in 0.15 M and 1.00 M NaCl ionic strength. (As the stability of the Sc(III) complex was determined in 1.00 M ionic strength, we had to perform the pH‐potentiometric titration of ligands using 1.00 M ionic strengths also.) The results of pH‐potentiometric measurement are shown in Table 1, where the corresponding data for 3,9‐PC2A,^[ [42] ^] PCTA ^[ [46] ^] and PC2AM‐NI ligands determined under identical conditions are also presented. Knowledge of the protonation constants defined by Eqn. 1 and 2 are essential for the calculation of the stability constants of the Sc(III) complexes:
(1) PC2AM^nBu^2−+nH^+⇌Hn(PC2AM^nBu)^−2+n (2) βn=HnPC2AM^nBu^−2+n/PC2AM^nBu^2−H^+^n
The protonation constants of the ligands, as well as the concentrations of the ligand stock solutions, were determined by pH‐potentiometric method using a Metrohm 785 DMP Titrino automatic titrator using a Metrohm 6.00234.100 combined glass electrode. The titrations were carried out in the pH range 1.75–11.80 and the pH electrode was calibrated by a two‐point calibration routine with the use of 0.05 M KH‐phthalate (pH = 4.005) and 0.01 M borax (pH = 9.177 buffers. The samples were stirred at 25 °C (±0.1 °C) and N2 gas bubbled into the system to ensure inert conditions and to eliminate the effect of the presence of CO2. For the calculation of [H^+] from the measured pH values, the method proposed by Irving et al. was applied.^[ [61] ^] For this, a 0.01 M HCl solution was titrated with the standardized NaOH solution in the presence of 0.15 M NaCl ionic strength at 25 °C. The differences between the measured (pHread) and calculated pH (‐log[H^+]) values were used to obtain the equilibrium H^+ concentration from the pHmeas values during the titrations. By fitting the resulting titration curves (pH – V (NaOH) data pairs) with the PSEQUAD program, the protonation constants of the ligands were determined.^[ [47] ^] The titration of the [Sc(PC2AM^nBu)]^+ with NaOH was performed with the same method by applying very similar conditions.

[6] = Acid‐assisted dissociation (decomplexation) of Sc(III) complexes, UV spectroscopy; assay type: physicochemical; details: dissociation of the Sc(III) complex, 1.6‐2.6 M HClO4, 25 °C, I = 2.6 M
Source text: The inertness of metal complexes is a basic requirement in all relevant modalities of medical imaging. Complexes of macrocyclic ligands are often more inert compared to open‐chain analogs. In order to assess the behavior of our complexes, the decomplexation of [Sc(PC2AM^nBu)]^+ and [Sc(PCTA)] was studied in a strongly acidic medium (cH + = 1.6 ‐ 2.6 M HClO4) by using UV spectroscopy. […] The primary Abs. versus time curves have been fitted by monoexponential function returning kobs (s^−1) values (Figures S22 and S23).
The plots of the rate constants as a function of acid concentration yielded linear relationships for both complexes (k obs = k 0 + k 1[H^+]). The slopes of these lines correspond to the rate coefficients characteristic for acid‐assisted dissociation (k 1), whereas the intercepts characterize the acid‐independent part, often referred to as a rate of spontaneous dissociation. […] The rate coefficients obtained during the fitting are summarized in Table 3, along with the half‐lives calculated from the rate coefficients by using 1 M acid concentration (t ½ = ln 2 / k obs).
Kinetic studies of the dissociation of the [Sc(PC2AMnBu)]^+ and [Sc(PCTA)] complexes were carried out by examining the dependence of the dissociation rates on acid concentration. Spectrophotometric measurements were conducted on a JASCO V‐760 spectrophotometer at λ = 280 nm. The concentration of the complex in the sample was 0.30 mM, and HClO4 was applied in concentrations ranging from 1.6 to 2.6 M. The evaluation of the measured data was performed with Scientist software ^[ [62] ^] to determine the k 0 (spontaneous) and k 1 (acid‐assisted) reaction rates.

SMILES: O=C([O-])CN1CCN(CC(=O)[O-])CCN(CC(=O)[O-])CCN(CC(=O)[O-])CC1.[Sc+3] [[Sc(DOTA)]^−]
log K ScL ([1]; literature stability constant): 30.79

SMILES: O=C([O-])CN1CCN(CC(=O)[O-])Cc2cccc(n2)CN(CC(=O)[O-])CC1.[Sc+3] [[Sc(PCTA)]]
time of complexation to reach the equilibrium ([2]; pH = 1.28, 25 °C): about 300 minutes
half‐life of the complex formation reaction (t 1/2 = ln2 / k obs) ([2]; ‐log[H^+] = 1.28, 25 °C): 46 min
k obs of complex formation ([2]; ‐log[H^+] = 1.28, 25 °C, cSc = cligand = 10 mM (PC2AM^nBu) or 9.5 mM (PCTA), monoexponential fit of free Sc(III) signal): (2.51 ± 0.12) x 10^−4 s^−1

AL/M (relative affinity) ([4]; pH = 7.4, I = 0.15 M NaCl, calculated from constants of ref 33): 6.57
SMILES: O=C(O)CN1CCN(CC(=O)O)CCN(CC(=O)NCCn2ccnc2[N+](=O)[O-])CCN(CC(=O)O)CC1 [DO3AM‐NI]
log β 2 ^H [3]: 17.38
pSc ([1]; pSc = ‐log[Sc(III)]free, cSc(III) = 1x10^−8 M, clig = 1x10^−7 M, pH = 7.4, I = 0.15 M NaCl): 20.74
log K ScL ([1]; stability constant of the Sc(III) complex, I = 0.15 M NaCl, T = 25 °C): 22.36

log K 1 ^H ([5]; I = 0.15 M NaCl): 8.79(1)
log K 2 ^H ([5]; I = 0.15 M NaCl): 7.59(1)
log K 3 ^H ([5]; I = 0.15 M NaCl): 2.31(2)
log K 4 ^H ([5]; I = 0.15 M NaCl): 1.28(3)
log β 2 ^H ([5]; I = 0.15 M NaCl): 16.38
log K 1 ^H ([5]; I = 1.00 M NaCl): 8.13(2)
log K 2 ^H ([5]; I = 1.00 M NaCl): 7.59(1)
log K 3 ^H ([5]; I = 1.00 M NaCl): 2.52(1)
log β 2 ^H ([5]; I = 1.00 M NaCl): 15.72
AL/M (relative affinity) ([4]; pH = 7.4, I = 1.00 M NaCl): 5.17
pSc ([4]; pSc = ‐log[Sc(III)]free, cSc(III) = 1x10^−8 M, clig = 1x10^−7 M, pH = 7.4, I = 1.00 M NaCl): 19.32
log K ScL ([4]; stability constant of the Sc(III) complex, I = 1.00 M NaCl, T = 25 °C): 19.53(4)
SMILES: CCCCNC(=O)CN1CCN(CC(=O)O)Cc2cccc(n2)CN(CC(=O)O)CC1 [PC2AM^nBu]
k 0 (spontaneous dissociation) [6]: 0 s⁻¹
k 1 (acid‐assisted dissociation) [6]: (3.64 ± 0.08) x 10^−7 M^−1s^−1

SMILES: O=C([O-])CN(CCN(CC(=O)[O-])CC(=O)[O-])CCN(CC(=O)[O-])CC(=O)[O-].[Sc+3] [[Sc(DTPA)]^2−]
log K ScL ([1]; literature stability constant): 27.43
